Each block holds one compound with its values, some of them ahead of it.
Test: photoluminescence quantum yield (fraction); solvent given as SMILES

Compound: COC(=O)/C(C#N)=c1/cc/c(=c2/cc/c(=C(\C#N)C(=O)OC)s2)s1
photoluminescence quantum yield (in Cc1ccccc1): 0.0035

Compound: CC(C)(C)c1ccc2c(c1)c1cc(C(C)(C)C)ccc1n2-c1ccc2oc3nc4oc5ccc(C(F)(F)F)cc5c4cc3c2c1
photoluminescence quantum yield (in C1CCCCC1): 0.113
photoluminescence quantum yield (in C1CCOC1): 0.073
photoluminescence quantum yield (in CC#N): 0.032
photoluminescence quantum yield (in CS(C)=O): 0.124
photoluminescence quantum yield (in Cc1ccccc1): 0.094
photoluminescence quantum yield (in ClC(Cl)Cl): 0.058

Compound: CCC1=C(C)C2=Cc3cc4c(cc3B(O)N2C1=O)OCO4
photoluminescence quantum yield (in CC#N): 0.57
photoluminescence quantum yield (in CO): 0.3
photoluminescence quantum yield (in CS(C)=O): 0.8
photoluminescence quantum yield (in ClC(Cl)Cl): 0.61

Compound: C(=C\c1ccc(N(c2ccccc2)c2ccccc2)cc1)/c1ccc(/C=C/c2ccc(N(c3ccccc3)c3ccccc3)cc2)cc1
photoluminescence quantum yield (in Cc1ccccc1): 0.82

Compound: N#CC1=C(c2ccc(-c3cccs3)s2)CCC1
photoluminescence quantum yield (in CCO): 0.04

Compound: CSc1sc(C(C)=O)c2nn[nH]c(=O)c12
photoluminescence quantum yield (in C1CCOC1): 0.015
photoluminescence quantum yield (in CC#N): 0.017
photoluminescence quantum yield (in CCO): 0.0091
photoluminescence quantum yield (in CN(C)C=O): 0.0047
photoluminescence quantum yield (in CO): 0.0077
photoluminescence quantum yield (in CS(C)=O): 0.0048

Compound: C(#Cc1ccc2ncsc2c1)c1ccc(N(c2ccc(C#Cc3ccc4ncsc4c3)cc2)c2ccc(C#Cc3ccc4ncsc4c3)cc2)cc1
photoluminescence quantum yield (in Cc1ccccc1): 0.53

Compound: c1ccc(-c2c3c(c(-c4ccccc4)c4cc5ccccc5cc24)Cc2c(c(-c4ccccc4)c4cc5ccccc5cc4c2-c2ccccc2)C3)cc1
photoluminescence quantum yield (in CC#N): 0.27
photoluminescence quantum yield (in CCCCCC): 0.28
photoluminescence quantum yield (in CO): 0.3
photoluminescence quantum yield (in Cc1ccccc1): 0.61
photoluminescence quantum yield (in ClCCl): 0.21

Compound: N#Cc1c(-n2c3ccccc3c3ccccc32)c(F)c(-n2c3ccccc3c3ccccc32)c(F)c1-n1c2ccccc2c2ccccc21
photoluminescence quantum yield (in Cc1ccccc1): 0.76
photoluminescence quantum yield (in c1ccc([Si](c2ccccc2)(c2ccc(-n3c4ccccc4c4ccccc43)cc2)c2ccc(-n3c4ccccc4c4ccccc43)cc2)cc1): 0.74

Compound: CC1(C)c2ccccc2N(c2ccc3c(c2)C(C)(C)c2cc(N4c5ccccc5C(C)(C)c5ccccc54)ccc2S3(=O)=O)c2ccccc21
photoluminescence quantum yield (in O=P(c1ccccc1)(c1ccccc1)c1ccccc1Oc1ccccc1P(=O)(c1ccccc1)c1ccccc1): 0.8

Continued, values first:

photoluminescence quantum yield (in C1CCCCC1): 0.36
photoluminescence quantum yield (in CC#N): 0.27
photoluminescence quantum yield (in CO): 0.34
photoluminescence quantum yield (in ClCCl): 0.45
Compound: COc1c2ccccc2c(OC)c2c1c1ccc(F)cc1n2C

photoluminescence quantum yield (in CC(C)O): 0.09
Compound: CCN1C(=CC2=C([O-])C(=CC3=[N+](CC)c4ccccc4C3(C)C)C2=O)C(C)(C)c2ccccc21

photoluminescence quantum yield (in C1CCCCC1): 0.06
Compound: COc1ccc(C2=C(c3ccc(OC)cc3)C(C)(C)c3cc(-c4ccccc4)ccc32)cc1

photoluminescence quantum yield (in ClCCl): 0.98
Compound: CCOC(=O)/C=C/C1=[N+]2C(=C(c3c(C)cc(C)cc3C)c3ccc(/C=C/C(=O)OCC)n3[B-]2(F)F)C=C1

photoluminescence quantum yield (in C1COCCO1): 0.0191
photoluminescence quantum yield (in CC#N): 0.00752
photoluminescence quantum yield (in CCCCO): 0.0169
photoluminescence quantum yield (in CCCO): 0.0108
photoluminescence quantum yield (in CCO): 0.00738
photoluminescence quantum yield (in CCOC(C)=O): 0.0275
photoluminescence quantum yield (in CO): 0.00499
Compound: CN1C(C(=O)Nc2ccccn2)=C(O)c2sccc2S1(=O)=O

photoluminescence quantum yield (in C1CCCCC1): 0.88
photoluminescence quantum yield (in CCOC(C)=O): 0.93
photoluminescence quantum yield (in CO): 0.88
Compound: Cc1ccccc1C1=C2C=c3c(oc4ccccc34)=[N+]2[B-](F)(F)n2c1cc1c3ccccc3oc12

photoluminescence quantum yield (in CC#N): 0.58
photoluminescence quantum yield (in CCO): 0.66
photoluminescence quantum yield (in CN(C)C=O): 0.54
photoluminescence quantum yield (in O): 0.36
Compound: CCN(CC)c1ccc2c(-c3ccc(S(=O)(=O)O)cc3S(=O)(=O)[O-])c3ccc(=[N+](CC)CC)cc-3oc2c1

photoluminescence quantum yield (in C1CCOC1): 0.09
Compound: COc1ccc(-c2cc3ccccc3p2-c2ccccc2)cc1 (stereo unspecified)

photoluminescence quantum yield (in CO): 0.05
photoluminescence quantum yield (in CS(C)=O): 0.02
photoluminescence quantum yield (in O): 0.02
Compound: CCCN1/C(=C/C=C(/C=C/c2sc3ccccc3[n+]2CCC)c2ccc([N+](=O)[O-])cc2)Sc2ccccc21

photoluminescence quantum yield (in C1CCOC1): 0.2
photoluminescence quantum yield (in CS(C)=O): 0.17
photoluminescence quantum yield (in ClCCl): 0.19
Compound: COc1cc(OC)cc(C2=C3C(C)=C(I)C(C)=[N+]3[B-](F)(F)n3c(/C=C/c4c[nH]c5ccccc45)c(I)c(C)c32)c1

photoluminescence quantum yield (in ClC(Cl)Cl): 0.86
Compound: F[B-]1(F)n2c(ccc2-c2nc3ccccc3s2)C(c2ccccc2)=C2C=CC(c3nc4ccccc4s3)=[N+]21

photoluminescence quantum yield (in ClCCl): 0.131
Compound: Cc1ccc(-c2c3nc(c(-c4ccc(C)cc4)c4ccc([nH]4)c(-c4ccc(OC(=O)C(C)c5ccc(-c6ccccc6)c(F)c5)cc4)c4nc(c(-c5ccc(C)cc5)c5ccc2[nH]5)C=C4)C=C3)cc1 (stereo unspecified)

photoluminescence quantum yield (in ClC(Cl)Cl): 0.42
Compound: COc1ccc(C2=[N+]3C(=C(c4ccc(I)cc4)c4ccc(-c5ccc(OC)cc5)n4[B-]3(F)F)C=C2)cc1

photoluminescence quantum yield (in C1CCCCC1): 0.23
Compound: Cc1ccc(-c2ccccc2)cc1

photoluminescence quantum yield (in ClCCl): 0.15
Compound: [O-][n+]1c(-c2ccc(Br)cc2)cc(N2CCOCC2)nc1/C=C/c1ccccc1

Source: the Deep4Chem optical property database
